Data on one molecule can be found in patent US20220288091A1, “Method for Improving Insulin Sensitivity” (priority 2019, published 2022).

In test [1] the test system is overweight or obese subjects with prediabetes or mild type 2 diabetes. The test is described as follows: Frequently sampled intravenous glucose tolerance test (FSIVGTT). The format is in vivo, human. Conditions: Ln(FFA) slope / AUC insulin 0-90 min of FSIVGTT; 50 mg every 6 hours for 9 days; mean±SD, n=16. The method, then: A randomized, placebo-controlled, double-blind crossover trial was conducted to evaluate the use of an anti-glucocorticoid as a means for ameliorating insulin resistance. Mifepristone, 50 mg, or a placebo, was administered every six hours for nine days to sixteen overweight or obese (BMI 25-37 kg/m^2) subjects (seven women). Participant ages ranged from 48 to 64 years. Ten had prediabetes and six had mild diabetes type II (HgbA1c less than 7%). Treatment of the glucose disorder with diet or a stable dose of metformin (used by two patients) was maintained for three (3) months before the study. The interventions were nine days of mifepristone or placebo treatment followed by a six (6) to eight (8) week wash out and cross over to the other arm. At baseline and at the end of each treatment period, parameters of insulin sensitivity were assessed by a frequently sampled intravenous glucose tolerance test (FSIVGTT) and an oral glucose tolerance test (OGTT). […] Adipo-IR, a surrogate measure of adipocyte insulin resistance, was calculated by multiplying fasting concentrations of free fatty acids and insulin (mmol×pmol/L). […]
Insulin sensitivity index, SI, was determined from the minimal model using data from the insulin-modified FSIVGTT as previously described (version 6.02; MinMOD Millenium, Los Angeles, Calif.). […]

The subject of test [2] is hypothalamic-pituitary-adrenal axis. The test is described as follows: 24-hour profile of ACTH and cortisol. The format is in vivo, human. Here is the method: To reduce potential variability associated with estrogen in premenopausal women, testing was performed in the early follicular phase (days 1-7 of menstrual cycle). Baseline height and weight were measured after an overnight fast. Subjects received an isocaloric regular diet during the inpatient part of the study, and those on metformin took the same dose throughout the study. Baseline testing took place took place over three inpatient days at the NIH Clinical Center, during which fasting blood was drawn, 24-hour urine was collected, 24-hour serial blood draws were obtained, and patients received both a […] (FSIVGTT) and a 75-g oral glucose tolerance test (OGTT). Subjects were then randomized to receive placebo or mifepristone for 9 days, of which the first 6 days the subjects returned home, and the final 3 days subjects underwent the same metabolic testing as during the baseline period. Subjects randomized to the mifepristone treatment arm were instructed to take one capsule (50 mg) every 6 hours (200 mg/day) over the course of 9 days. The placebo treatment arm received the same instructions to take one capsule every 6 hours over the course of the 9-day treatment period. Following the completion of the post-drug testing, subjects entered a 6-8 week washout period, after which they were crossed over to the other treatment arm, serving as their own controls for the study drug treatments.
Data shown are mean±SEM with p values provided for the effects of treatment group, time, and the treatment-time interaction, which was obtained with repeated-measures ANOVA with post-hoc Bonferroni's test. Tukey box and whisker plots show ACTH (B) and cortisol (D) area under the curve for the 24-hour period. Top and bottom box limits represent the 75th and 25th percentile, respectively; midlines represent the median, and top and bottom whiskers represent the 75th percentile plus 1.5 of the interquartile range (IQR) and the 25th percentile minus 1.5 IQR, respectively. Post-treatment values were adjusted for baseline and treatment group using mixed-model regression. P values indicate significance for comparisons between mifepristone and placebo.

Setting [3] is: 50 mg every 6 hours for 9 days, all subjects.

Each structure is given as a SMILES string.

Turning to `CC#C[C@]1(O)CC[C@H]2[C@@H]3CCC4=CC(=O)CCC4=C3[C@@H](c3ccc(N(C)C)cc3)C[C@@]21C` [Mifepristone, 11beta-[p-(dimethylamino)phenyl]-17alpha-(1-propynl)estra-4,9-dien-17beta-ol-3-one], the “Adipose-tissue Insulin Sensitivity Index (Adipose SI)” value in test [1] was 61.7±32.9. Besides, in test [2] (setting [3]), the “ACTH area under the curve (AUC), 24-hour” value amounted to 574.5 ± 260.8 pg·min/mL and the “Cortisol area under the curve (AUC), 24-hour” value is 255.4 ± 61.9 µg·min/dL. Moreover, in test [2] (mifepristone arm, subgroup with higher 24-hr UFC), the “Serum cortisol AUC, subjects with higher 24-hr UFC” value turned out to be 284.9 ± 39.9 µg·min/dL. Besides, the “Serum cortisol AUC, subjects with normal 24-hr UFC” value in test [2] (mifepristone arm, subgroup with normal 24-hr UFC) is 229.8 ± 68.5 µg·min/dL.
